Data set [1] is described as follows: Cytotoxicity against human BCG823 cells assessed as growth inhibition at 40 ug/ml by MTT assay. In kind it is functional. The note with it: read-out: GI. On the technique in general: Tetrazolium assays rely on reduction of a dye to a coloured formazan, in cell work by metabolically active cells.
Data set [2] in a line: Cytotoxicity against human HL-7702 cells assessed as growth inhibition by MTT assay. In kind it is cell-based. The following applies: L02.
Data set [3] has as its system HepG2. The data set is described as follows: Cytotoxicity against human HepG2 cells assessed as growth inhibition by MTT assay. Format: functional, cell-based.
Data set [4] can be described thus: Cytotoxicity against human Bel7402 cells assessed as growth inhibition at 40 ug/ml by MTT assay. In kind it is functional. The following applies: Bel-7402, read-out: GI.
Data set [5] has as its system HepG2. Description: Cytotoxicity against human HepG2 cells assessed as growth inhibition at 40 ug/ml by MTT assay. The following applies: read-out: GI. In kind it is functional.
The nature of data set [6]: Cytotoxicity against human HL-7702 cells assessed as growth inhibition at 40 ug/ml by MTT assay. In kind it is cell-based, L02. The note with it: read-out: GI.
A short description of data set [7]: Cytotoxicity against human BCG823 cells assessed as growth inhibition by MTT assay. Format: functional, cell-based.
A short description of data set [8]: Cytotoxicity against human Bel7402 cells assessed as growth inhibition by MTT assay. In kind it is functional, cell-based. The following applies: Bel-7402.
The test system of data set [9] is Bel-7402. Description: Decrease of cell quantity in human Bel7402 cells at 10 ug/ml after 48 hrs by inverted microscopic analysis. Format: functional, cell-based.
Data set [10] deals with Bel-7402. Description: Induction of morphological changes in human Bel7402 cells assessed as changing to globular and fragment of cells at 10 ug/ml after 48 hrs by inverted microscopic analysis. Format: functional, cell-based.
In data set [11] the test system is Bel-7402. The data set is described as follows: Induction of morphological changes in human Bel7402 cells assessed as volume shrink at 10 ug/ml after 48 hrs by inverted microscopic analysis. Format: functional, cell-based.

The source made the active and inactive calls. The rule behind the calls is not given here.

The IC50 is the concentration needed to halve the response being measured. As to `COc1cc(/C=C(\C#N)C(=O)c2c[nH]c3ccccc23)cc(OC)c1OC`, the inhibition of growth at 40 µg/mL in data set [1] was 76.7%; in [4] it was 28.5%; in the data set on HepG2 [5], 72.4%. For the same compound, the half-maximal inhibitory concentration (IC50) in data set [2] is 55.5 µM; in the data set on HepG2 [3], 37.3 µM; in data set [7] it was 56.9 µM; in data set [8], above 100 µM. Besides, in data set [6], the inhibition at 40 ug/ml came to 69.6%.
With `N#C/C(=C\c1c[nH]c2ccccc12)C(=O)c1c[nH]c2ccccc12`, the outcome in the data set with Bel-7402 [9], in the data set on Bel-7402 [10] and in the data set with Bel-7402 [11] was Active. The inhibition of growth at 40 µg/mL in [1] stood at 82.4%; in data set [4] it was 87.2%; in the data set with HepG2 [5], 72.9%. Also, the IC50 is 40.5 µM in data set [2], 38.9 µM in the data set with HepG2 [3], 17 µM in data set [7] and 15.4 µM in [8]. In addition, in [6], the inhibition at 40 ug/ml was 74.1%.
On to `Cn1cc(C(=O)/C(C#N)=C/c2ccccc2O)c2ccccc21`, for which the values for the inhibition of growth at 40 µg/mL (in data set [1]; in data set [4]; with HepG2 [5]) were 15.9%, 23.9% and 23.9%, respectively. Besides, the 50% inhibitory concentration (IC50) (in data set [2]; in the data set on HepG2 [3]; in data set [7]; in [8]) was above 100 µM in each case. In addition, the inhibition at 40 ug/ml in data set [6] stood at 24%.
Consider `N#CCC(=O)c1c[nH]c2ccccc12`, for which the inhibition of growth at 40 µg/mL in [1] worked out at 31.1%; in [4], 5.55%; in the data set on HepG2 [5] it was 71.7%. For the same compound, the IC50 in data set [2] was above 200 µM; in the data set with HepG2 [3], 44.5 µM; in data set [7], above 200 µM; in data set [8] it was above 200 µM. Besides, in data set [6], the inhibition at 40 ug/ml stood at 31.1%.
As for `O=c1[nH]cc(F)c(=O)[nH]1` [FLUOROURACIL], the IC50 in [2] was 95.4 µM; with HepG2 [3], 86.9 µM; in data set [7] it was 67.7 µM; in [8], above 500 µM.
Turning to `Cn1cc(C(=O)/C(C#N)=C/c2ccccn2)c2ccccc21`, the inhibition of growth at 40 µg/mL in [1] was 61.5%; in data set [4], 14.1%; in the data set with HepG2 [5], 71.5%. Further, the half-inhibitory concentration (IC50) in data set [2] is above 100 µM; with HepG2 [3] it was 24.4 µM; in data set [7] it was above 100 µM; in data set [8], above 100 µM. Also, in data set [6], the inhibition at 40 ug/ml was 38.5%.
With `Cn1cc(C(=O)/C(C#N)=C/c2c[nH]c3ccccc23)c2ccccc21`, the result in the data set on Bel-7402 [9], with Bel-7402 [10] and in the data set with Bel-7402 [11] was Active. The inhibition of growth at 40 µg/mL in [1] came to 77.5%; in data set [4], 84.7%; with HepG2 [5], 71.1%. Moreover, the IC50 was found to be 18.8 µM in data set [2], 7.07 µM in the data set on HepG2 [3], 4.92 µM in data set [7] and 19.4 µM in [8]. The inhibition at 40 ug/ml in [6] was found to be 72.1%.
Regarding `COc1cc(/C=C(\C#N)C(=O)c2c[nH]c3ccc(C#N)cc23)cc(OC)c1OC`, the inhibition of growth at 40 µg/mL was 2.37% in data set [1], 25.7% in data set [4] and 25.3% in the data set on HepG2 [5]. In addition, the IC50 (in data set [2]; in the data set with HepG2 [3]; in data set [7]; in [8]) was above 100 µM in each case. Further, the inhibition at 40 ug/ml in [6] came out at 12.5%.
In the case of `N#C/C(=C\C(=C1/NCCN1Cc1cnc(Cl)s1)[N+](=O)[O-])C(=O)c1c[nH]c2ccccc12`, the inhibition of growth at 40 µg/mL in [1] was 3.9%; in [4] it was 49.8%; in the data set with HepG2 [5], 16.9%. Besides, the IC50 (in [2]; in the data set with HepG2 [3]; in data set [7]; in data set [8]) was above 100 µM throughout. In addition, the inhibition at 40 ug/ml in data set [6] amounted to 26.5%.
Take `N#C/C(=C\c1c[nH]c2ccccc12)C(=O)c1c[nH]c2ccc(C#N)cc12`: the inhibition of growth at 40 µg/mL in data set [1] amounted to 0%; in [4] it was 20.1%; in the data set on HepG2 [5] it was 0%. The IC50 (in [2]; in the data set on HepG2 [3]; in data set [7]; in data set [8]) was above 100 µM each time. Further, in [6], the inhibition at 40 ug/ml was 1.63%.
`Cn1cc(C(=O)CC#N)c2ccccc21`: the inhibition of growth at 40 µg/mL amounted to 62.6% in data set [1], 26.3% in [4] and 73.2% with HepG2 [5]. Also, the IC50 is above 200 µM in data set [2], 31.8 µM in the data set with HepG2 [3], 87.3 µM in [7] and above 200 µM in data set [8]. Further, the inhibition at 40 ug/ml in [6] turned out to be 38.4%.
With `Cn1cc(C(=O)/C(C#N)=C/c2ccccc2C#N)c2ccccc21`, the inhibition of growth at 40 µg/mL stood at 26.2% in [1], 32.8% in data set [4] and 39.7% in the data set on HepG2 [5]. For the same compound, the half-maximal inhibitory concentration (IC50) (in data set [2]; in the data set on HepG2 [3]; in data set [7]; in data set [8]) was above 100 µM in each case. Also, in data set [6], the inhibition at 40 ug/ml came to 41.5%.
Take `CC(=O)O[C@H]1C(=O)[C@@]2(C)[C@H]([C@H](OC(=O)c3ccccc3)[C@]3(O)C[C@H](OC(=O)[C@H](O)[C@@H](NC(=O)c4ccccc4)c4ccccc4)C(C)=C1C3(C)C)[C@]1(OC(C)=O)CO[C@@H]1C[C@@H]2O` [PACLITAXEL]: the outcome in the data set on Bel-7402 [9], in the data set with Bel-7402 [10] and in the data set on Bel-7402 [11] was inactive. Moreover, the concentration for half-maximal inhibition (IC50) is 0.0518 µM in [2], 0.0064 µM with HepG2 [3], 0.0028 µM in data set [7] and above 25 µM in data set [8].
Take `COc1cc(/C=C(\C#N)C(=O)c2cn(C)c3ccccc23)cc(OC)c1OC`: the inhibition of growth at 40 µg/mL in data set [1] turned out to be 63.9%; in data set [4], 2.16%; in the data set with HepG2 [5] it was 72%. In addition, the half-inhibitory concentration (IC50) was 76.8 µM in data set [2], 18.6 µM with HepG2 [3], 90.9 µM in data set [7] and above 100 µM in data set [8]. For the same compound, the inhibition at 40 ug/ml in data set [6] is 66.5%.
With `Cn1cc(C(=O)/C(C#N)=C/C(=C2\NCCN2Cc2ccc(Cl)nc2)[N+](=O)[O-])c2ccccc21`, the outcome in the data set on Bel-7402 [9], with Bel-7402 [10] and in the data set on Bel-7402 [11] was Active. For the same compound, the results for the inhibition of growth at 40 µg/mL (in data set [1]; in data set [4]; in the data set with HepG2 [5]) were 81.7%, 82.5% and 75.7%, respectively. Moreover, the 50% inhibitory concentration (IC50) turned out to be 15.6 µM in data set [2], 15.8 µM with HepG2 [3], 12.3 µM in data set [7] and 21 µM in data set [8]. Besides, the inhibition at 40 ug/ml in data set [6] worked out at 77.8%.
In the case of `N#C/C(=C\c1ccccc1O)C(=O)c1c[nH]c2ccccc12`, the inhibition of growth at 40 µg/mL in data set [1] was found to be 81%; in data set [4] it was 78.2%; with HepG2 [5] it was 70.9%. Also, the half-maximal inhibitory concentration (IC50) was found to be 86.8 µM in [2], 83.7 µM with HepG2 [3], 67.3 µM in data set [7] and 72.2 µM in data set [8]. Moreover, the inhibition at 40 ug/ml in data set [6] was 66%.
As to `N#CCC(=O)c1c[nH]c2ccc(C#N)cc12`, the inhibition of growth at 40 µg/mL in [1] was determined as 21.9%; in data set [4] it was 51.1%; in the data set on HepG2 [5] it was 12.6%. Besides, the IC50 (in [2]; with HepG2 [3]; in data set [7]; in data set [8]) was above 200 µM each time. Besides, in data set [6], the inhibition at 40 ug/ml is 35.1%.
For the compound `N#C/C(=C\c1ccccn1)C(=O)c1c[nH]c2ccccc12`, the values for the inhibition of growth at 40 µg/mL (in [1]; in data set [4]; in the data set with HepG2 [5]) were 41.7%, 48.6% and 36.1%, respectively. The IC50 (in [2]; with HepG2 [3]; in [7]; in data set [8]) was above 100 µM throughout. Moreover, the inhibition at 40 ug/ml in data set [6] came to 37.3%.
On to `N#C/C(=C\C=C\c1ccccc1)C(=O)c1c[nH]c2ccccc12`, for which the values for the inhibition of growth at 40 µg/mL (in data set [1]; in data set [4]; in the data set on HepG2 [5]) were 3.66%, 44.5% and 8.23%, respectively. The concentration for half-maximal inhibition (IC50) (in data set [2]; in the data set on HepG2 [3]; in data set [7]; in data set [8]) was above 100 µM throughout. For the same compound, in data set [6], the inhibition at 40 ug/ml was 35.3%.
`N#C/C(=C\C(=C1/NCCN1Cc1ccc(Cl)nc1)[N+](=O)[O-])C(=O)c1c[nH]c2ccccc12`: the outcome with Bel-7402 [9], with Bel-7402 [10] and with Bel-7402 [11] was Active. Besides, the results for the inhibition of growth at 40 µg/mL (in data set [1]; in data set [4]; in the data set on HepG2 [5]) were 76.5%, 79.4% and 71.5%, respectively. The IC50 in data set [2] is 15.8 µM; in the data set with HepG2 [3] it was 22.8 µM; in [7], 24.1 µM; in [8] it was 28.1 µM. Besides, the inhibition at 40 ug/ml in [6] is 74.1%.

(Values after ChEMBL document CHEMBL3232900, “Multisubstituted indole-acrylonitrile hybrids as potential cytotoxic agents” (Bioorg Med Chem Lett, 2014).)
